Laboratory results published in paper PMC9177618 (Structure (London, England : 1993), 2022).
Structures can show the parent of a compound that is named as a salt.

Key:
Dnmt1 = settings: murine pre-implantation Dnmt3a/3b knockout embryos; ref Haggerty et al., 2021; cited from earlier work
[1] = system: mouse embryonic stem cells; settings: ref Portilho et al., 2021; cited from earlier work
full-length DNMT1 = full-length DNMT1 (Homo sapiens, UniProt P26358); experiment: radioactive scintillation proximity assay; assay type: biochemical
Sequence of full-length DNMT1 (P26358 whole entry): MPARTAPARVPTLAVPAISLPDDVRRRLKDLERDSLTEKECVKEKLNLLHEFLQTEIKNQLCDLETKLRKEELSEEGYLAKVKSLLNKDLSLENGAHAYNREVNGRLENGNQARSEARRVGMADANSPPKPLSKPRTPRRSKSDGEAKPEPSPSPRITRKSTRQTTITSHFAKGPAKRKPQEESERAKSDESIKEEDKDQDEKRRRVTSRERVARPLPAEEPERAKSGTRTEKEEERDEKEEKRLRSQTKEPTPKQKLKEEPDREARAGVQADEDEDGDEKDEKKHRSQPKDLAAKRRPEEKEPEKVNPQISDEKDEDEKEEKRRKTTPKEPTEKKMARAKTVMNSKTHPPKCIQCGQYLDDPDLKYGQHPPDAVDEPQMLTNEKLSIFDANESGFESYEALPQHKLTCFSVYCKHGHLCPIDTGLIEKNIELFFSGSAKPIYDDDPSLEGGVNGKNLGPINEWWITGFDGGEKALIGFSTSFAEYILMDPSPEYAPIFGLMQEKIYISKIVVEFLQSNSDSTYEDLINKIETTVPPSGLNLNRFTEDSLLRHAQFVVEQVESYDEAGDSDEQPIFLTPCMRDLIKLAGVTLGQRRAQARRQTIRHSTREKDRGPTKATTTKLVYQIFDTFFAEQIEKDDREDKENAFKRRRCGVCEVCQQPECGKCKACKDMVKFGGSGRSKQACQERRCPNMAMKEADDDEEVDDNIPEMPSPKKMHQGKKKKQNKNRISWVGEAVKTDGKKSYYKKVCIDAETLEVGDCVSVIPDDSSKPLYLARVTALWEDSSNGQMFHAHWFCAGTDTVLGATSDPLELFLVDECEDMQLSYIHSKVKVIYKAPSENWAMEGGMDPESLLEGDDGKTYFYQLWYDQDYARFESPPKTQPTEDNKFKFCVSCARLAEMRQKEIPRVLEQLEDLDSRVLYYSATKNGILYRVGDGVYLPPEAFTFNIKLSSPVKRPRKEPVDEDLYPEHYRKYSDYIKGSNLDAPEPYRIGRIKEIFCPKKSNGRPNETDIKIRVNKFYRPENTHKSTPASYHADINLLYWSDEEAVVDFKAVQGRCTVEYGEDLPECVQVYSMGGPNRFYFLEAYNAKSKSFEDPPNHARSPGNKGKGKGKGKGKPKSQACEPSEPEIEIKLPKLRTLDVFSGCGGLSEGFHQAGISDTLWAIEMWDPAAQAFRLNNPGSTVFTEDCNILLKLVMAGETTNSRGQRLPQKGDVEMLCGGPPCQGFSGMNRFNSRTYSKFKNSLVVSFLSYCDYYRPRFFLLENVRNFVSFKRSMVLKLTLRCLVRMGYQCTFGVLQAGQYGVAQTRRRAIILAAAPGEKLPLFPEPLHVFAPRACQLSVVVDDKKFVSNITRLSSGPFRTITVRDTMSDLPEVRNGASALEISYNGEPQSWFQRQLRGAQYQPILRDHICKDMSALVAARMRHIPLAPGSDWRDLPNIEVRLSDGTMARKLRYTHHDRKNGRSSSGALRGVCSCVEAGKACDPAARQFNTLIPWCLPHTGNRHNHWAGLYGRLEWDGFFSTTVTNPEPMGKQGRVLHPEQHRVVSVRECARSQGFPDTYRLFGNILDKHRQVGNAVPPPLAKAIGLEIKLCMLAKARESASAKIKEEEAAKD

acute myeloid leukemia = settings: mouse models of acute myeloid leukemia; ref Pappalardi et al., 2021; cited from earlier work
[2] = system: more than 300 protein kinases and 30 other methyltransferases (MTases), including DNMT3a and 3b; settings: ref Pappalardi et al., 2021; cited from earlier work
cancer cell = settings: in vitro; ref Pappalardi et al., 2021; cited from earlier work

In the case of CCc1c(C#N)c(SC(C(N)=O)c2ccccc2)nc(N(C)C)c1C#N (stereo not shown) [GSK3484862], the “inhibition of Dnmt1” value (Dnmt1) is given as “inhibits Dnmt1”, the demethylation [1] is given as “demethylation in mouse embryonic stem cells, in a level similar to that observed with Dnmt1 knockouts” and the non-specific toxicity [1] is given as “minimal non-specific toxicity”.
With CCc1c(C#N)c(SC(C(N)=O)c2ccccc2)nc(N2CCCN(CCO)CC2)c1C#N (stereo not shown) [GSK3543105, 2-((3,5-dicyano-4-ethyl-6-(4-(2-hydroxyethyl)-1,4-diazepan-1-yl)pyridin-2-yl)thio)-2-phenylacetamide] the IC50 (full-length DNMT1) was 30 to 60 nM.
In the case of CCc1c(C#N)c(SC(C(N)=O)c2ccccc2)nc(N2CCC(N)CC2)c1C#N (stereo not shown) [GSK3685032], the “tumor regression and survival compared with decitabine (Dacogen)” value (acute myeloid leukemia) is listed as “superior to decitabine”, the “selectivity for DNMT1” value [2] is listed as “selective for DNMT1 over more than 300 protein kinases and 30 other methyltransferases” and the “inhibition of cancer cell growth” value (cancer cell) is listed as “inhibits cancer cell growth”.
Compound CCc1c(C#N)c(SCc2ccc(CNC(=O)CN)cc2)nc(N2CCCN(C)CC2)c1C#N [GSK3735967, 2-amino-N-(4-(((3,5-dicyano-4-ethyl-6-(4-methyl-1,4-diazepan-1-yl)pyridin-2-yl)thio)methyl)benzyl)acetamide] has an IC50 (full-length DNMT1) of 30 to 60 nM.
For CCc1c(C#N)c(N[C@@H](C(N)=O)c2ccccc2)nc(N2CCC(N)CC2)c1C#N [GSK3830334, (R)-2-((6-(4-aminopiperidin-1-yl)-3,5-dicyano-4-ethylpyridin-2-yl)amino)-2-phenylacetamide], the “reduced potency relative to the ~30-60 nM compounds” value (full-length DNMT1; full-length DNMT1, 40-mer hemimethylated DNA duplex, radioactive SPA) was 3-6 fold.
In the case of CCc1c(C#N)c(SC(C(N)=O)c2ccc(C(F)(F)F)cc2)nc(N2CCC(N)CC2)c1C#N (stereo not shown) [GSK3852279, 2-((6-(4-aminopiperidin-1-yl)-3,5-dicyano-4-ethylpyridin-2-yl)thio)-2-(4-(trifluoromethyl)phenyl)acetamide trifluoroacetate], the IC50 (full-length DNMT1) is reported as 30 to 60 nM.
